Data: publication PMC10208151 (mAbs, 2023)

Target: BMSmAb (Bristol Myers Squibb mAb, a type of IgG4)
Assay: STD NMR titration
Type: binding

Kd: 67.8 mM
SMILES: OC[C@H]1O[C@@](CO)(O[C@H]2O[C@H](CO)[C@@H](O)[C@H](O)[C@H]2O)[C@@H](O)[C@@H]1O [sucrose]
